{"source": "patent US20010039027A1", "about": "“Cyclitol containing carbohydrates from human tissue which regulate lipogenic activity” (priority 1996, published 2001)", "tested_on": "rat adipocytes", "test": "Activation of lipogenesis in rat adipocytes", "type": "cell-based", "conditions": "insulin 1 nM; twenty independent lipogenesis assays", "protocol": "This was carried out on adipocytes isolated from the epididymal fat pads of young rats. Briefly adipocytes from two rat epididymial fat pads were suspended in 8 ml of Krebs Ringer bicarbonate and 250 μL of the cell suspension was incubated at 37° C. for two hours in Krebs Ringer bicarbonate, containing 1% albumin and 5 mM [U-^14C]-glucose (1 μCi/sample) with or without insulin (1 nM) or 10 μL of IPG solutions. The rate of incorporation of uniformly labelled glucose into fatty acids was used as a measure of lipogenesis.", "data": [{"substance": "Insulin", "values": [{"measurement": "Lipogenesis (lipogenic activity)", "result": "5160 ± 310 (n-20) milliunits/g liver"}]}]}
